Source: US7208154B2, “Methods and compositions for the treatment of MHC-associated conditions” (Regents of the University of Michigan, priority 2002, dated 2007)
Read-outs that look alike come from different tables or passages of the source.

Experiments:
[1] = tested on: human fibroblastoid line M1 cells; conditions: M1 cells preincubated overnight with 50 μg/ml synthetic pentapeptide
Description: To further determine the signaling pathways involved in DNA repair induction, the inventors used the Trevigen CometAssay™ kit (Cat. No. 4250-50-K). The CometAssay is a single-cell gel electrophoresis method that can measure a variety of types of DNA damage, and repair of damage, in individual cells. The assay is based on the alkaline lysis of labile DNA at sites of damage. The unwound, relaxed DNA is able to migrate out of the cell during electrophoresis and can be visualized by SYBR Green staining.
To quantify DNA damage, cells were collected and three parallel samples were processed (a negative control, a DNA damage control (H2O2) and a sample subjected to H2O2 following exposure to various modulators of the cAMP signaling pathway). Cells are then washed in PBS. The washed cells are combined with molten low-melting agarose (Trevigen Cat. No. 4250-50-02) and transferred to a CometSlide™ (Trevigen Cat. No. 4250-100-03). The slides are immersed in lysis buffer for 30 min, on ice, in the dark. The slides are then treated with alkali buffer for 20 to 60 min at room temperature in the dark. The slides are then electrophoresed in buffer for 10 min at 20 volts, then fixed in methanol and ethanol. The slides are then stained with SYBR green (Trevigen Cat. No. 4250-50-05) solution and fluorescently imaged with a Diagnostic Instruments digitized camera, mounted on a Nikon Eclipse E400 microscope. Scion Image software is used to quantitate the comet tail intensity. Each data point is derived from tail fluorescent intensity determination in 50–100 individual cells. Data is presented as % DNA repair (the percent decrement in tail fluorescence intensity in agonist or antagonist-treated cells, relative to the intensity recorded in cells treated with H2O2 only)±SEM. (R.U.s)
To directly examine that possibility, cells were incubated overnight with synthetic peptides corresponding to the region contained within amino acids 65–79 and their ability to mount DNA repair activity in response to cAMP-elevating agents was determined. M1 cells were preincubated overnight with 50 μg/ml of synthetic peptides corresponding to the region surrounding the third allelic hypervariable region (aa 65–79) of each of the following DRβ chains: *0401 (65–79*0401) [SEQ ID NO: 5], *0402 (65–79*0402) [SEQ ID NO: 7], *0403 (65–79*0403) [SEQ ID NO: 9] or *0404(65–79*0404) [SEQ ID NO: 10]. At the end of the preincubation, cells were collected, washed and 2CA-induced DNA repair was determined as above. Table 3 (above) lists the different third allelic hypervariable region peptides used in the entire study disclosed here.
A modified method as described previously by Auger et al. [Nature Med 2:306–310 1996] was used. Briefly, cyanogen bromide activated Speharose 4B (1.5 ml) was washed with 1 mM HCl and incubated with peptides in 0.1 M NaHCO3 and 0.5 M NaCl (pH 8) buffer overnight at 4° C. For each peptide, 5 mg was used per milliliter of Sepharose. Free Sepharose groups were blocked with 0.2 M glycine (pH 8) for 2 hours at room temperature. Columns were washed at 4° C. with the following buffers: 0.1 M NaHCO3, 0.5 M NaCl (pH 8) buffer, then 0.5 M CH3COONa (pH 4) buffer and finally PBS at pH 7.5. M1 cells were plated at a density of 0.5×10^6 cells per well (6 well plate) in 10% FBS DMEM medium until 70–80% confluence. Prior to incubation with peptides, cultures were changed to serum-free DMEM medium, then evenly overlaid with 50 μg bead conjugated peptides, and incubated for the indicated period. Soluble peptides were added overnight to M1 cells at a concentration of 50 μg/ml.

calreticulin = target: T1, calreticulin (Homo sapiens, UniProt P27797); experiment: Blocking of shared epitope peptide-triggered signaling (cAMP-inhibitory effect, genoprotection) in M1 cells; format: cell-based; design: endogenous in cells; host or cells: M1 human fibroblastoid cells; conditions: M1 cells pre-incubated or transfected
T1 sequence (P27797 18-417): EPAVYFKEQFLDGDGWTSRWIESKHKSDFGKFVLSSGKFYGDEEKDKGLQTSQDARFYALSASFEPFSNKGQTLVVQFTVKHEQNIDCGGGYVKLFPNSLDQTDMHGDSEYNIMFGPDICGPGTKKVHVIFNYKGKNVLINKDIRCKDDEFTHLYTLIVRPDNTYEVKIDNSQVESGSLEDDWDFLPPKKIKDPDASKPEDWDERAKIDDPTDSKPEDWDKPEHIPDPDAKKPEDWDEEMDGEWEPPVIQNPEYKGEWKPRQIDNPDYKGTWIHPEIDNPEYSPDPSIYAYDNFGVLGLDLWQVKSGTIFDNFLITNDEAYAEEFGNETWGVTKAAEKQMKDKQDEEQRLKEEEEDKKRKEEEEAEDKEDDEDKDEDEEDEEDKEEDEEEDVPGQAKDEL
Description: Finally, in order to determine whether these neuroprotective peptides transduce their signaling through calreticulin, two complementing protocols were executed: i) Inhibition of peptide-calreticulin interaction using anti-calreticulin antibodies, or ii) blocking calreticulin expression with antisense oligonucleotides (as shown in FIG. 13C and FIG. 13D).
M1 cells were cultured in 6-well plate to 60–70% confluency. M1 cells were treated by 0.2 μM antisense oligonucleotide for 24 to 48 hr, using Lipofectin as a carrier. Calreticulin expression levels were determined by Western-blot and flow cytometry, using anti-calreticulin antibodies. Polyclonal rabbit anti-human calreticulin antibodies were obtained from ABR, Golden, CO.

Substance	Inhibition of cAMP-dependent (2CA-induced) DNA repair induction / genoprotective pathway by pentapeptide [1]	Inhibition of cAMP-dependent (2CA-induced) DNA repair induction / genoprotective pathway by pentapeptide ([1]; listed as #7)	Block of shared epitope peptide-triggered signaling / inhibitory effect on genoprotection (calreticulin)
DKCLA [Asp Lys Cys Leu Ala]	biologically inactive	failed to do so	prevented
Gln Lys Arg Ala Glu (QKRAE)	failed to do so	–	–
